Measurements reported in paper PMC2883571, “Quercetin Targets Cysteine String Protein (CSPα) and Impairs Synaptic Transmission” (PLoS ONE, 2010).

T1: c-myc-CSPα (Rattus norvegicus, UniProt P60905)
T1 construct: gene Dnajc5; full-length CSPα1-198, c-myc tag kept; transient expression in CAD mouse neuroblastoma cells; palmitoylated monomer ~34 kDa, dimer ~72 kDa
T1 sequence (P60905 1-198): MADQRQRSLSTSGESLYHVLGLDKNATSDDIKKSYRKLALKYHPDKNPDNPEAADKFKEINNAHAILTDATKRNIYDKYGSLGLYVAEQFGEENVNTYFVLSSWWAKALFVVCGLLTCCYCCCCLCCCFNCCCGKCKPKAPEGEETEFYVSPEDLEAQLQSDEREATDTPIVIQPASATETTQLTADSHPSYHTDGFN

T2: purified recombinant rat CSPα (Rattus norvegicus, UniProt P60905)
T2 construct: gene Dnajc5; purified recombinant soluble CSPα
T2 sequence (P60905 1-198): T1 sequence (P60905 1-198)

B1: c-myc tagged rat CSPα_(1–198) (cysteine string protein) (natural protein, UniProt P60905 1-198, looked up)
chain: T1 sequence (P60905 1-198)
modifications: both unmodified and palmitoylated (extensive fatty acylation) species seen
notes: cysteine string protein alpha (CSPα), rat, residues 1-198; also called c-myc-CSPα; source: CAD mouse neuroblastoma cells, transiently transfected, in lysate

Legend:
c-myc-CSPα = target: T1, c-myc-CSPα; experiment: CSPα dimer in transfected CAD cells, anti-myc Western blot; type: cell-based; conditions: 24 h treatment of intact cells, cysteine string region
[1] = target: T2, purified recombinant rat CSPα; experiment: SDS-resistant dimerization of purified protein, SDS-PAGE; type: binding; conditions: 24 h incubation; concentration series
[2] = target: the molecule itself; experiment: SDS-resistant dimer on SDS-PAGE with Western blot; lysates of transiently transfected CAD cells, control or treated 24 h with quercetin (up to 200 µM), EGCG or other agents; 30-40 µg protein in SDS sample buffer at 37°C or 80°C; dimer at ∼72 kDa

Molecule | fold CSPα dimer vs control at 100 μM (c-myc-CSPα) [fold] | CSPα dimer formation [1] | fold dimer with 100 µM quercetin at 24 hrs over control [2] [fold]
O=c1c(O)c(-c2ccc(O)c(O)c2)oc2cc(O)cc(O)c12 [quercetin, 3,3′,4′,5,7-pentapentahydroxyflavone] | 4 | quercetin triggered dimerization of recombinant CSPα in a concentration dependent manner | 
B1 |  |  | 4
